The test has as its system P388 leukemia ip, CD2F1 mice, survival T/C. The experiment in a line: NCI In Vivo Anticancer Drug Screen. Data for tumor model P388 Leukemia (intraperitoneal) in CD2F1 (CDF1) mice. The note with it: endpoint: median survival time, higher = longer survival. In outline: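 Mice carrying the transplanted tumor received test compound or vehicle. Survival was recorded in each group, and the value is the treated-group measurement divided by that of the vehicle-treated control group.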

The mark [1] stands for this setting: dose: 50.0 mg/kg/injection, schedule: Q01DX009 (ip), vehicle: Klucel (hydroxypropylcellulose) (HPC).
Where [2] appears, read: dose: 100.0 mg/kg/injection, schedule: Q01DX009 (ip), vehicle: Klucel (hydroxypropylcellulose) (HPC).
Setting [3] is: dose: 200.0 mg/kg/injection, schedule: Q01DX009 (ip), vehicle: Klucel (hydroxypropylcellulose) (HPC).
[4] abbreviates: dose: 100.0 mg/kg/injection, schedule: Q01DX009 (ip), vehicle: saline with Tween-80.
Where [5] appears, read: dose: 200.0 mg/kg/injection, schedule: Q01DX009 (ip), vehicle: saline with Tween-80.
The mark [6] stands for this setting: dose: 400.0 mg/kg/injection, schedule: Q01DX009 (ip), vehicle: Klucel (hydroxypropylcellulose) (HPC).
Where [7] appears, read: dose: 400.0 mg/kg/injection, schedule: Q01DX009 (ip), vehicle: saline with Tween-80.
The mark [8] stands for this setting: dose: 25.0 mg/kg/injection, schedule: Q01DX009 (ip), vehicle: saline.
[9] abbreviates: dose: 50.0 mg/kg/injection, schedule: Q01DX009 (ip), vehicle: saline.
Setting [10] is: dose: 200.0 mg/kg/injection, schedule: Q01DX009 (ip), vehicle: saline.
The mark [11] stands for this setting: dose: 60.0 mg/kg/injection, schedule: Q01DX005 (ip), vehicle: saline with Tween-80.
[12] abbreviates: dose: 120.0 mg/kg/injection, schedule: Q01DX005 (ip), vehicle: saline with Tween-80.
Where [13] appears, read: dose: 240.0 mg/kg/injection, schedule: Q01DX005 (ip), vehicle: saline with Tween-80.
[14] abbreviates: dose: 100.0 mg/kg/injection, schedule: Q04DX003 (ip), vehicle: Klucel (hydroxypropylcellulose) (HPC).
The mark [15] stands for this setting: dose: 200.0 mg/kg/injection, schedule: Q04DX003 (ip), vehicle: Klucel (hydroxypropylcellulose) (HPC).

Molecules are shown by their SMILES. Several values for one entry are separate records, joined by “and”; a condition that tells them apart may be missing. Identical values can stand only once. Inconclusive results and toxic doses are left out.

For the molecule `Cn1c(N2CCN(CCO)CC2)nc2c1c(=O)n(CC(O)CN1CCN(CCO)CC1)c(=O)n2C` (stereo not drawn), the T/C was 89 % of control under setting [1], 97 % of control under setting [2] and 107 % of control under setting [3].
Regarding `CC1=C(O[Si](C)(C)C)CCC1=O`, the T/C reads like this: (dose: 50.0 mg/kg/injection, schedule: Q01DX005 (ip), vehicle: saline with Tween-80) 113 % of control; (dose: 100.0 mg/kg/injection, schedule: Q01DX005 (ip), vehicle: saline with Tween-80) 105 % of control; (dose: 200.0 mg/kg/injection, schedule: Q01DX005 (ip), vehicle: saline with Tween-80) 106 % of control.
`Cc1c(C)c2c(c(C)c1O)CCC(C)(CCCC(C)CCCC(C)CCCC(C)C)O2` (stereo not drawn): the T/C is, setting by setting: (dose: 42.5 mg/kg/injection, schedule: Q01DX001 (ip), vehicle: olive oil, sesame oil, peanut oil) 104 % of control; (dose: 50.0 mg/kg/injection, schedule: Q01DX009 (ip), vehicle: olive oil, sesame oil, peanut oil) 106 % of control; (dose: 85.0 mg/kg/injection, schedule: Q01DX001 (ip), vehicle: olive oil, sesame oil, peanut oil) 98 % of control; (dose: 100.0 mg/kg/injection, schedule: Q01DX009 (ip), vehicle: olive oil, sesame oil, peanut oil) 100 % of control; under setting [4], 100 % of control; (dose: 100.0 mg/kg/injection, schedule: Q04DX003 (ip), vehicle: saline with Tween-80) 100 % of control. Moreover, the T/C is 100 % of control and 97 % of control (dose: 170.0 mg/kg/injection, schedule: Q01DX001 (ip), vehicle: olive oil, sesame oil, peanut oil); 103 % of control (dose: 200.0 mg/kg/injection, schedule: Q01DX009 (ip), vehicle: olive oil, sesame oil, peanut oil); 104 % of control under setting [5]; 100 % of control (dose: 200.0 mg/kg/injection, schedule: Q04DX003 (ip), vehicle: saline with Tween-80); 91 % of control (dose: 340.0 mg/kg/injection, schedule: Q01DX001 (ip), vehicle: olive oil, sesame oil, peanut oil); 102 % of control under setting [6]. Further, the T/C reads like this: under setting [7], 100 % of control; (dose: 400.0 mg/kg/injection, schedule: Q04DX003 (ip), vehicle: saline with Tween-80) 87 % of control; (dose: 800.0 mg/kg/injection, schedule: Q01DX009 (ip), vehicle: Klucel (hydroxypropylcellulose) (HPC)) 101 % of control; (dose: 1200.0 mg/kg/injection, schedule: Q01DX009 (ip), vehicle: Klucel (hydroxypropylcellulose) (HPC)) 106 % of control; (dose: 1600.0 mg/kg/injection, schedule: Q01DX009 (ip), vehicle: Klucel (hydroxypropylcellulose) (HPC)) 113 % of control; (dose: 42.5 IU/animal/injection, schedule: Q01DX001 (ip), vehicle: olive oil, sesame oil, peanut oil) 102 % of control and 110 % of control. Further, the T/C is 102 % of control and 105 % of control and 107 % of control (dose: 85.0 IU/animal/injection, schedule: Q01DX001 (ip), vehicle: olive oil, sesame oil, peanut oil); 101 % of control and 113 % of control (2×) (dose: 170.0 IU/animal/injection, schedule: Q01DX001 (ip), vehicle: olive oil, sesame oil, peanut oil); 102 % of control and 104 % of control (dose: 340.0 IU/animal/injection, schedule: Q01DX001 (ip), vehicle: olive oil, sesame oil, peanut oil).
On to `CCOC(=O)CC(=O)c1ccc(Cl)cc1`, for which the T/C under setting [8] is 100 % of control; the T/C under setting [9] was 100 % of control; the T/C (dose: 100.0 mg/kg/injection, schedule: Q01DX009 (ip), vehicle: saline) is 104 % of control; the T/C under setting [10] was 101 % of control.
With `O=C(O)c1ccc(NC(=S)NC(=O)c2cccc(Br)c2)cc1`, the T/C was 91 % of control under setting [11] and 86 % of control under setting [12].
Consider `O=C(N/N=C/c1ccccn1)c1ccccc1`, for which the T/C runs as follows: (dose: 60.0 mg/kg/injection, schedule: Q01DX005 (ip), vehicle: Klucel (hydroxypropylcellulose) (HPC)) 102 % of control; (dose: 120.0 mg/kg/injection, schedule: Q01DX005 (ip), vehicle: Klucel (hydroxypropylcellulose) (HPC)) 97 % of control; (dose: 240.0 mg/kg/injection, schedule: Q01DX005 (ip), vehicle: Klucel (hydroxypropylcellulose) (HPC)) 100 % of control.
Take `CCCCCCCCCCCC[S+](C)CCCCCCCC` (stereo not drawn): the T/C reads like this: (dose: 0.78 mg/kg/injection, schedule: Q01DX005 (ip), vehicle: saline with Tween-80) 111 % of control and 117 % of control; (dose: 1.56 mg/kg/injection, schedule: Q01DX005 (ip), vehicle: saline with Tween-80) 122 % of control; (dose: 3.13 mg/kg/injection, schedule: Q01DX005 (ip), vehicle: saline with Tween-80) 124 % of control.
As for `CC1(C)N2c3ccc(Cl)cc3C(c3ccccc3)N1c1ccc(Cl)cc1C2c1ccccc1` (stereo not drawn), the T/C under setting [1] is 98 % of control, the T/C under setting [2] is 95 % of control and the T/C under setting [3] was 95 % of control.
Consider `CC1(C(N)=O)CO1` (stereo not drawn), for which the T/C reads like this: (dose: 100.0 mg/kg/injection, schedule: Q04DX003 (ip), vehicle: saline) 103 % of control; (dose: 200.0 mg/kg/injection, schedule: Q04DX003 (ip), vehicle: saline) 100 % of control; (dose: 400.0 mg/kg/injection, schedule: Q04DX003 (ip), vehicle: saline) 100 % of control.
For the molecule `CNC(=O)N1CCOC1c1ccc(NC(=O)OC)cc1` (stereo not drawn), the T/C was 96 % of control under setting [11], 90 % of control under setting [12] and 95 % of control under setting [13].
Regarding `COc1ccc2c(NCCCCCCCCCCNc3c4ccccc4nc4cc(OC)ccc34)c3ccccc3nc2c1`, the T/C (dose: 2.5 mg/kg/injection, schedule: Q01DX009 (ip), vehicle: other) was 153 % of control and the T/C (dose: 5.0 mg/kg/injection, schedule: Q01DX009 (ip), vehicle: other) was 155 % of control.
As for `O=NN1CC23C=CCCC2(CCCC3)C1` (stereo not drawn), the T/C was 113 % of control under setting [14]; 114 % of control under setting [15]; 104 % of control (dose: 400.0 mg/kg/injection, schedule: Q04DX003 (ip), vehicle: Klucel (hydroxypropylcellulose) (HPC)).
Consider `CN(CCCCC1CCCN(C(=O)c2ccccc2)C1)C(=O)c1ccccc1` (stereo not drawn), for which the T/C runs as follows: (dose: 12.5 mg/kg/injection, schedule: Q01DX005 (ip), vehicle: Klucel (hydroxypropylcellulose) (HPC)) 96 % of control; (dose: 25.0 mg/kg/injection, schedule: Q01DX005 (ip), vehicle: Klucel (hydroxypropylcellulose) (HPC)) 94 % of control; (dose: 50.0 mg/kg/injection, schedule: Q01DX005 (ip), vehicle: Klucel (hydroxypropylcellulose) (HPC)) 103 % of control and 97 % of control.
With `O=C(NO)C(O)C(O)C(O)C(O)CO` (stereo not drawn), the T/C (dose: 12.5 mg/kg/injection, schedule: Q01DX009 (ip), vehicle: saline) was 93 % of control; the T/C under setting [8] is 91 % of control; the T/C under setting [9] was 98 % of control and 97 % of control; the T/C under setting [10] is 86 % of control.
Regarding `O=C(O)c1ccc(OCCOc2ccccc2)c(Cl)c1`, the T/C by setting is: under setting [11], 98 % of control; under setting [12], 95 % of control; under setting [13], 93 % of control.
For `COc1ccc(N=C=S)cc1N=C=S`, the T/C reads like this: (dose: 6.25 mg/kg/injection, schedule: Q04DX003 (ip), vehicle: saline with Tween-80) 95 % of control; (dose: 12.5 mg/kg/injection, schedule: Q04DX003 (ip), vehicle: saline with Tween-80) 104 % of control; (dose: 25.0 mg/kg/injection, schedule: Q04DX003 (ip), vehicle: saline with Tween-80) 104 % of control.
With `CNc1ncnc2ccc(Cl)cc12`, the T/C reads like this: under setting [1], 93 % of control; under setting [2], 102 % of control.
Regarding `c1ccc(-c2nc3ccccc3[nH]2)nc1`, the T/C reads like this: (dose: 25.0 mg/kg/injection, schedule: Q04DX003 (ip), vehicle: Klucel (hydroxypropylcellulose) (HPC)) 101 % of control; (dose: 50.0 mg/kg/injection, schedule: Q04DX003 (ip), vehicle: Klucel (hydroxypropylcellulose) (HPC)) 96 % of control; under setting [2], 115 % of control; under setting [14], 101 % of control; under setting [3], 99 % of control; under setting [15], 93 % of control. Under setting [6], the T/C was 101 % of control.
Regarding `CCCC1OC(/C=C/c2ccccc2)OCC1CC` (stereo not drawn), the T/C was 101 % of control and 108 % of control and 109 % of control under setting [4]; 101 % of control and 116 % of control (2×) under setting [5]; 116 % of control and 120 % of control under setting [7].

These data come from PubChem BioAssay AID330 (DTP/NCI, 2004).
